Assay results published in the SangsterLogP compilation.

| Compound | logP |
| --- | --- |
| Cc1ccc(S(=O)(=O)NC(=O)C(C)C)c([N+](=O)[O-])c1 | 2.17 |
| CCC(CC)C(=O)Nc1cc(Cl)ccc1S(N)(=O)=O | 2.55 |
| Cc1ccc(S(N)(=O)=O)c(NC(=O)C(C)C)c1 | 1.45 |
| COc1ccc(S(N)(=O)=O)c(NC(=O)C(C)C)c1 | 1.37 |
| CCC(CC)C(=O)NS(=O)(=O)c1ccccc1N | 1.64 |
| CCC(CC)C(=O)Nc1ccccc1S(N)(=O)=O | 1.62 |
| Cc1ccc(S(=O)(=O)NC(=O)C(C)C)c(N)c1 | 1.65 |
| CCC(CC)C(=O)Nc1cc(C)ccc1S(N)(=O)=O | 2.13 |
| CC(C)C(=O)Nc1cc(Cl)ccc1S(N)(=O)=O | 1.87 |
| CCC(CC)C(=O)NS(=O)(=O)c1ccccc1[N+](=O)[O-] | 2.17 |
| CC(C)C(=O)Nc1ccccc1S(N)(=O)=O | 0.97 |
| CC(C)C(=O)Nc1ccc(C(F)(F)F)cc1S(N)(=O)=O | 2.45 |
| CC(C)C(=O)NS(=O)(=O)c1ccc(C(F)(F)F)cc1N | 2.56 |
| CCC(CC)C(=O)NS(=O)(=O)c1cc([N+](=O)[O-])cc(C(F)(F)F)c1 | 3.57 |
| CCC(CC)C(=O)NS(=O)(=O)c1ccc(Cl)cc1N | 2.53 |
| COc1ccc(S(=O)(=O)NC(=O)C(C)C)c(N)c1 | 1.58 |
| CCC(CC)C(=O)Nc1cc(C(F)(F)F)ccc1S(N)(=O)=O | 3.06 |
| CC(C)C(=O)NS(=O)(=O)c1cc([N+](=O)[O-])cc(C(F)(F)F)c1 | 3.1 |
| CC(C)C(=O)NS(=O)(=O)c1ccccc1N | 1.17 |
| CCC(CC)C(=O)NS(=O)(=O)c1ccc(C)cc1N | 2.18 |
| CC(C)C(=O)NS(=O)(=O)c1ccccc1[N+](=O)[O-] | 1.72 |
| CCC(CC)C(=O)Nc1cc(OC)ccc1S(N)(=O)=O | 2.01 |
| CCC(CC)C(=O)NS(=O)(=O)c1ccc(OC)cc1N | 2.03 |
| CCC(CC)C(=O)NS(=O)(=O)c1ccc(C)cc1[N+](=O)[O-] | 2.67 |
